Source: US5948780A, “Method for treating and preventing heart failure and ventricular dilatation” (priority 1997, dated 1999)

What was measured:
[1] = test system: pacing-induced heart failure model; assay: pacing-induced heart failure in pigs, first study (echocardiography); assay type: in vivo, pig
Protocol: A study was performed in four pigs in which atrial pacemakers were implanted. Heart failure was induced by chronic rapid pacing (i.e., increasing heart rate to 240 beats per minute). Echocardiographic assessment of cardiac function, chamber dimensions, and structure was performed prior to the initiation of pacing, and following 1 and 3 weeks of rapid pacing. Previous studies have shown that 1 week of rapid atrial pacing represents an early timepoint in the development of heart failure in which cardiac dilation is evident, but there is no significant effect on left ventricular (LV) systolic function. Two pigs were dosed with the MMP-inhibitor 2-(4'-bromobiphenyl-4-sulfonylamino)-3-methylbutyric acid (Compound A) (20 mg/kg/day) which was given once a day orally. This dosage was selected based upon pharmacokinetic data in which this dosage regimen would provide minimal steady state plasma levels of 10 μM Compound A. One pig dosed with Compound A was sacrificed at the end of 1 week of pacing, and the second pig was paced for a full 3 weeks. At the end of 3 weeks, pigs were euthanized and the heart removed. Cardiac myocytes were isolated from a portion of the left ventricle to measure changes in cell length.
(§1) MMP-Inhibitor efficacy in treating heart failure was defined as stopping cardiac dilation, preserving cardiac function, and reducing cardiac myocyte lengthening. Cardiac dilation was assessed by measuring changes in the end-diastolic dimension between the left ventricular free wall and left ventricular septum. Cardiac function was also measured using m-mode echocardiography by calculating the percent fraction shortening, or in other words, how well the left ventricle of the heart pumped blood into the circulation. Cellular remodelling was measured by isolating cardiac myocytes using a standard collagenase digestion procedure and measuring cell length using digital photomicroscopy. To confirm plasma drug levels of the MMP-inhibitor, plasma was collected prior to dosing on each day of the pacing protocol.

cardiac myocytes = assay: cardiac myocyte length after pacing, first study; assay type: in vivo, pig
Protocol: A study was performed in four pigs in which atrial pacemakers were implanted. Heart failure was induced by chronic rapid pacing (i.e., increasing heart rate to 240 beats per minute). Echocardiographic assessment of cardiac function, chamber dimensions, and structure was performed prior to the initiation of pacing, and following 1 and 3 weeks of rapid pacing. Previous studies have shown that 1 week of rapid atrial pacing represents an early timepoint in the development of heart failure in which cardiac dilation is evident, but there is no significant effect on left ventricular (LV) systolic function. […]
as §1, with “To confirm plasma drug levels of the MMP-inhibitor, plasma was collected prior to dosing on each day of the pacing protocol.” left out

in vivo = assay: in vivo; set-up: species or system Yorkshire pigs; conditions: pig, po, 10 mg/kg
Protocol: In a similar study, three Yorkshire pigs (22-25 kg, male, Hambone Farms, S.C.) were chronically instrumented in order to measure arterial blood pressure in the conscious state. The pigs were anesthetized with isoflurane (3%/1.5 L/min) and a mixture of nitrous oxide and oxygen (50:50), intubated with a cuffed endotracheal tube and ventilated at a flow rate of 22 mL/kg/minute, and a respiratory rate of 15/minute. A left thoracotomy was performed, and the thoracic aorta at the location of the hemi-azygous crossover exposed. A catheter connected to a vascular process port (Model GPV, 9F, Access Technologies, Skokie, Ill.) was placed in the aorta and sutured in place. The access port was buried in a subcutaneous pocket over the thoracolumbar fascia. Following a recovery period of 7 to 10 days, the animal was returned to the laboratory for baseline studies. […] The vascular access port was entered using a 12-gauge Huber needle (Access Technologies, Skokie, Ill.) and basal, resting arterial pressure and heart rate were recorded. […]
The MMP inhibitor chosen for these studies was Compound A as above. […] Plasma levels of the MMP inhibitor were determined by the degree of hydrolysis of the MMP substrate thiopeptolide Ac-Pro-Leu-Gly-thioester-Leu-Leu-Gly=OEt. […]

gelatinases = assay: plasma MMP inhibitory activity (thiopeptolide hydrolysis), gelatinases; assay type: biochemical; conditions: plasma after 10 mg/kg oral administration
Protocol: (§2) The MMP inhibitor chosen for these studies was Compound A as above. A single oral dose of 10 mg/kg of Compound A was administered in one pig, and a second pig was simultaneously administered a single 10 mg/kg dose of the MMP inhibitor intravenously. Plasma samples were serially collected from the chronically placed arterial access ports. Plasma levels of the MMP inhibitor were determined by the degree of hydrolysis of the MMP substrate thiopeptolide Ac-Pro-Leu-Gly-thioester-Leu-Leu-Gly=OEt. […] A pharmacokinetic profile was constructed using these initial data, and it was predicted that an oral delivery of 20 mg/kg/day of Compound A would provide significant MMP plasma inhibitory activity at trough levels. Accordingly, the 3 pigs underwent 20 mg/kg QD-AM of treatment with Compound A for 5 days. In order to confirm adequate MMP inhibitory activity, plasma was collected prior to the AM dose with each day of treatment. […] Thus, a practical dosing regiment of Compound A was established which provided stable plasma MMP inhibitory activity in the animal model to be used in the present study.

[2] = test system: catalytic domain of stromelysin; assay: plasma MMP inhibitory activity (thiopeptolide hydrolysis), stromelysin; assay type: biochemical; conditions: plasma after 10 mg/kg oral administration
Protocol: as §2

MMP = MMP inhibitory activity of plasma from treated pigs, artificial MMP substrate; assay type: biochemical
Protocol: as §2

plasma neurohormones = plasma neurohormones with chronic rapid pacing (Table III); assay type: in vivo, pig; conditions: Rapid Pacing + MMPi, 20 mg/kg QD, 3 weeks, mean ± SEM
Protocol: Following steady-state LV function measurements, 35 cc of blood was drawn from the arterial access port into chilled tubes containing EDTA (1.5 mg/mL). The blood samples were immediately centrifuged (2000 g, 10 min, 4° C.), the plasma decanted into separate tubes, frozen in a dry ice/methanol bath, and stored at -80° C. until the time of assay.
The plasma samples were assayed for renin activity, catecholamine levels, and plasma MMP inhibition levels. Plasma renin activity (PRA) was determined by computing angiotensin I production using a radioimmunoassay (NEA-026, New England Nuclear, Boston, Mass.). Plasma norepinephrine was measured using high-performance liquid chromatography and normalized to pg/mL of plasma. All assays were performed in duplicate.
For comparisons of neurohormonal profiles, the Student-Neuman-Kuells test was employed. […] Values of p<0.05 were considered to be statistically significant.

isolated LV myocytes = assay: isolated myocyte contractile function with pacing induced congestive heart failure (Table IV); conditions: Rapid Pacing + MMPi, 20 mg/kg QD
Protocol: Following completion of the 21-day protocol, a final set of LV function measurements were performed and plasma collected. Following steady-state LV function measurements, 35 cc of blood was drawn from the arterial access port into chilled tubes containing EDTA (1.5 mg/mL). The blood samples were immediately centrifuged (2000 g, 10 min, 4° C.), the plasma decanted into separate tubes, frozen in a dry ice/methanol bath, and stored at -80° C. until the time of assay. The animals were then anesthetized as described in the preceding section, a sternotomy performed, and the heart quickly extirpated and placed in a phosphate buffered ice slush. The great vessels, atria, and right ventricle were carefully trimmed away, and the LV weighed. The region of the LV free wall incorporating the circumflex artery (5×5 cm) was excised and prepared for myocyte isolation. The region of the left ventricular free wall comprising the left anterior descending artery (3×5 cm) was cannulated and prepared for perfusion fixation.
Myocytes were isolated from the LV free wall as follows. The left circumflex coronary artery was perfused with a collagenase solution (0.5 mg/mL, Worthington, type II; 146 U/mg) for 35 minutes. The tissue was then minced into 2 mm sections and gently agitated. After 15 minutes, the supernatant was removed, filtered, and the cells allowed to settle. The myocyte pellet (5×10^4 cells/mL) was then resuspended in standard cell culture media (M199, Gibco Laboratories, Grand Island, N.Y.). […] Viable myocytes were defined as those cells which retained a rod shape, were calcium tolerant, responded to electrical stimulation, and excluded trypan blue. Isolated myocyte function was examined using a thermostatically controlled chamber (37° C.) containing a volume of 2.5 mL and two stimulating platinum electrodes to image the isolated myocytes on an inverted microscope (Axiovert IM35, Zeiss Inc., Germany). A 20× long working distance Hoffmann Modulation Contrast objective (Modulation Optics Inc., Greenvale, N.Y.) was used to image the myocytes. Myocyte contractions were elicited by field stimulating the tissue chamber at 1 Hz (S11, Grass Instruments, Quincy, Mass.) using current pulses of 5 msec duration and voltages 10% above contraction threshold. Myocyte motion signals were captured and input through an edge detector system (Crescent Electronics, Sandy, Utah). The distance between the left and right myocyte edges was converted into a voltage signal, digitized, and input to a computer (80386; ZBV2526, Zenith Data Systems, St. Joseph, Mich.) for analysis. Parameters computed from the digitized contraction profiles include percent shortening, velocity of shortening, velocity of relengthening, time to peak contraction, and duration of contraction.
Indices of LV and myocyte function were compared between the three treatment groups using multi-way analysis of variance (ANOVA). For comparisons of LV function with each week of pacing, an ANOVA for repeated measures was used. […] For comparisons of neurohormonal profiles, the Student-Neuman-Kuells test was employed. The categorical scores obtained from the histomorphometric studies were compared between groups using the Chi-Square analysis. All statistical procedures were performed using the BMDP statistical software package (BMDP Statistical Software Inc., Los Angeles, Calif.). […] Values of p<0.05 were considered to be statistically significant.

[3] = 20 mg/kg/day oral, paced 7 days
[4] = 20 mg/kg/day oral, paced 21 days
[5] = Paced + Compound A group, baseline

## CC(C)C(NS(=O)(=O)c1ccc(-c2ccc(Br)cc2)cc1)C(=O)O (stereo not drawn) [Compound A, 2-(4'-bromobiphenyl-4-sulfonylamino)-3-methylbutyric acid]
[1]; [3]
  End-Diastolic Dimension: 3.6 ± 0.2 cm
  Fractional Shortening: 33 ± 3%
  Heart Rate: 120 ± 3 BPM
  LV Stress: 50 ± 4 g/cm2
[1]; [4]
  End-Diastolic Dimension: 4.3 cm
  Fractional Shortening: 22%
[1]; 3 weeks of pacing
  decrease in cardiac function (fractional shortening): 39%
  increase in cardiac dilation (left ventricular end-diastolic dimension): 26%
[1]; [5]
  End-Diastolic Dimension: 3.4 ± 0.2 cm
  Fractional Shortening: 36 ± 3%
  Heart Rate: 105 ± 4 BPM
  LV Stress: 46 ± 3 g/cm2
[1]; first week of pacing
  left ventricular end-diastolic volume versus control values: remained unchanged from control values
  left ventricular wall stress versus control values: remained unchanged from control values
[1]; following 1 week of pacing
  fractional shortening, change: unchanged
Cardiac myocytes; [4]
  Cardiac Myocyte Length: 170 μms
Cardiac myocytes; 3 weeks of pacing
  increase in cardiac myocyte cell length: 19%
In vivo
  bioavailability at 4 h: ~100%
gelatinases
  reduction in activity against the gelatinases: ~50%
[2]
  reduction in activity against the catalytic domain of stromelysin: ~50%
MMP; pig, 20 mg/kg QD for 5 days, pre-dose plasma
  plasma MMP inhibitory activity: significant plasma MMP inhibitory activity was observed
MMP; plasma after 3 days of treatment, 20 mg/kg QD, artificial MMP substrate
  reduction of in vitro MMP activity by plasma: over 100%
Plasma neurohormones
  Norepinephrine: 1073 ± 241 pg/mL
  Renin Activity: 10.4 ± 1.1 ng/mL/h
Isolated LV myocytes; 7 mM calcium
  Percent Shortening: 5.6 ± 0.5%
  Relengthening Velocity: 78 ± 5 μm/s
  Resting Length: 156 ± 5 μm
  Shortening Velocity: 84 ± 7 μm/s
  Time to 50% Relaxation: 102 ± 5 ms
  Time to Peak Contraction: 240 ± 3 ms
  Total Duration: 476 ± 10 ms
Isolated LV myocytes; […] nM isoproterenol
  Percent Shortening: 5.1 ± 0.5%
  Relengthening Velocity: 80 ± 11 μm/s
  Resting Length: 161 ± 3 μm
  Shortening Velocity: 108 ± 11 μm/s
  Time to 50% Relaxation: 104 ± 6 ms
  Time to Peak Contraction: 175 ± 2 ms
  Total Duration: 433 ± 12 ms
Isolated LV myocytes; baseline
  Percent Shortening: 2.2 ± 0.1%
  Relengthening Velocity: 26 ± 2 μm/s
  Resting Length: 169 ± 4 μm
  Shortening Velocity: 31 ± 2 μm/s
  Time to 50% Relaxation: 131 ± 5 ms
  Time to Peak Contraction: 244 ± 7 ms
  Total Duration: 498 ± 9 ms
